Laboratory results as given in publication PMC7982526, “Discovery of New α-Glucosidase Inhibitors: Structure-Based Virtual Screening and Biological Evaluation” (Frontiers in Chemistry, 2021).

What was measured:
[1] = Cell viability assay (MTT); type: cell-based; settings: human, LO2 cells (normal hepatocyte cell line), 48 h treatment, read-out: IC50 toward LO2 cells (cytotoxicity)
Experimental: The LO2 cell line was cultured in a proper medium supplemented with 10% fetal bovine serum in a humidified atmosphere of 5% CO2 at 37°C. Cell suspensions were plated in 96-well plates at a density of 2 × 10^4 […]. Compounds were solubilized in DMSO at six different concentrations. After incubation for 24 h, the cells were treated with various concentrations of tested substances for 48 h and then incubated with 100 μL of MTT at 37°C for 2 h. The formazan dye product was measured by the absorbance at 490 nm on a Tecan Spark multimode microplate reader (Switzerland).

α-glucosidase [2] = target: T1, α-glucosidase (Saccharomyces cerevisiae, UniProt P53341); assay: Fluorescence quenching experiment; type: binding, baker's yeast; settings: increasing concentration of compound, 30 min, 37°C, excitation 290 nm
T1 construct: purchased Sigma-Aldrich G5003
Experimental: According to the previously reported method ([Aguilar-Moncayo et al., 2010]), all fluorescence spectra were measured on a fluorescence spectrophotometer (Agilent Cary Eclipse) equipped with a 10.0-mm quartz cell and a thermostat bath. In the fluorescence spectrophotometer, α-glucosidase (1 U/ml) was pretreated with certain concentrations of inhibitors for 30 min at 37°C. 100 μL of the above solution (pH 6.8) was added accurately to the quartz cell. The blank was used for buffer spectrum values. The fluorescence emission spectra were measured at 37°C. The excitation wavelength was 290 nm, and the emission spectrum was recorded from 320 to 500 nm.

α-glucosidase [3] = target: T1, α-glucosidase; assay: Kinetic assay, Lineweaver-Burk plot analysis; type: biochemical; settings: for inhibition type: Lineweaver-Burk plot analysis; for Ki: Lineweaver-Burk plot, substrate pNPG, secondary plot of slopes, read-out: estimated Ki
Experimental: The inhibition type of the inhibitors against α-glucosidase activities was evaluated based on a described method ([Hou et al., 2009]). Increasing concentrations of substrates pNPG were used in the absence or presence of tested compounds at four different concentrations around the IC50 values. The inhibitory kinetics of the investigated compounds on α-glucosidase was analyzed using the Lineweaver–Burk plot of the substrate concentration and velocity.

[4] = target: T2, α-Glucosidase (Sigma, G5003) derived from baker's yeast (Saccharomyces cerevisiae, UniProt P53341); assay: biochemical; type: biochemical; settings: for inhibition ratio against α-glycosidase: at 100 μM; for IC50: mean ± SD of three independent experiments, six concentrations, 37°C, pH 6.8, read-out: IC50 against α-glycosidase
T2 construct: purchased Sigma-Aldrich G5003
Experimental: The α-glucosidase inhibitory evaluation of the purchased 52 compounds was performed according to the previously described protocol ([Tang et al., 2014]; [Ye et al., 2019]). α-Glucosidase (Sigma, G5003) derived from baker’s yeast, and pNPG (Sigma, N1377) and the substrate were both purchased from Sigma-Aldrich. […] The compounds and α-glucosidase were preincubated in phosphate buffer (37°C, 15 min). Then, 25 μL substrate buffer was added to the system to start the reaction, and the incubation was continued at 37°C for 15 min. Finally, the reaction was terminated by the addition of 50 μL 0.2 M reaction termination solution. The optical density (OD) was measured at an absorbance wavelength of 405 nm using a microplate reader (Tecan, Switzerland). The IC50 values were estimated with six different concentrations, and each sample was measured three times in parallel experiments.

T2 sequence (P53341 whole entry): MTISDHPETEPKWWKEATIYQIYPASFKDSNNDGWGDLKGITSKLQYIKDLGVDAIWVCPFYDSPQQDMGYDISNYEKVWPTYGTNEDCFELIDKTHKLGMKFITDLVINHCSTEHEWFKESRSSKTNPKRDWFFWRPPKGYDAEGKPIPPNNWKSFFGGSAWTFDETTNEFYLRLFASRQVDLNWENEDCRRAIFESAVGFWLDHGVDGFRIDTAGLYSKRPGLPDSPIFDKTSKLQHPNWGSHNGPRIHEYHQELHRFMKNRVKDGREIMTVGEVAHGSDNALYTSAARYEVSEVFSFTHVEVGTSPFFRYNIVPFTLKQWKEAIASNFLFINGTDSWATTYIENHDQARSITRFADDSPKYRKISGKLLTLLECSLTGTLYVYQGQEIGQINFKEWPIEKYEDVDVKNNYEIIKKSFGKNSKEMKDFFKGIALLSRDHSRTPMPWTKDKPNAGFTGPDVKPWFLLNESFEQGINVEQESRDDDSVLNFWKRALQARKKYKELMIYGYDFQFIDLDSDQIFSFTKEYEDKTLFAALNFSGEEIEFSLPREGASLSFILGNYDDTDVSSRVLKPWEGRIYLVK
T1 sequence (P53341 whole entry): as above

| SMILES | IC50 at 48 h [1] | fluorescence quenching of α-glycosidase (α-glucosidase [2]) | inhibition type (α-glucosidase [3]) | Ki (α-glucosidase [3]) | inhibition ratio against α-glycosidase [4] | IC50 [4] |
| --- | --- | --- | --- | --- | --- | --- |
| Cc1cccc(-c2cc3ncn(CC(=O)NC(=O)Nc4ccccc4)c(=O)c3s2)c1 [compound 7] | > 100 µM | gradually quenched in a type of concentration-dependent manner | noncompetitive | 24.2 µM | above 50% | 17.4 ± 1.32 µM |
| CSc1nc(N)nc(SCC(=O)c2ccc3c(c2)OCO3)c1C#N [compound 22] | > 100 µM | gradually quenched in a type of concentration-dependent manner | noncompetitive | 11.3 µM | above 50% | 35.2 ± 2.14 µM |
| O=C(Nc1ccccc1C(=O)NCc1ccco1)c1ccc(F)cc1 [compound 37] | > 100 µM | gradually quenched in a type of concentration-dependent manner | noncompetitive | 11.3 µM | above 50% | 31.3 ± 3.11 µM |
| COc1ccc(-c2c(C#N)c(SCc3nc4ccccc4[nH]3)nc(C)c2C(C)=O)cc1 [compound 44] | > 100 µM | gradually quenched in a type of concentration-dependent manner | noncompetitive | 15.4 µM | above 50% | 9.99 ± 0.43 µM |
